# Legend:
# [1] = test system: intracellular beta-lactamase; assay: nitrocefin hydrolysis by bacterial cell suspension on Phoenix panel; assay type: cell-based, E. coli; set-up: unit not given here; conditions: maximum hydrolysis rate within 10 hrs; for NCF activity: no lysis reagent
# Description: (§1) Panel production. Stock solutions with nitrocefin, trehalose, and/or reagents used to lyse the bacterial cells in pH6 MES buffer were prepared and dispensed into wells on the bottom part of a Phoenix™ panel (BD, USA), with one stock solution in one well. Panels were then dried in an oven for approximately 30 min at approximately 70° C. The top part of Phoenix panel was then attached to the bottom part forming a panel system ready for inoculation. The concentrations of reagents after rehydration following Phoenix panel inoculation were 3 mg/ml lysozyme, 1 mM EDTA, and 1% trehalose in 0.1M pH6 MES buffer.
# (§2) Inoculation and lysis testing. Representative strains of bacteria, such as E. coli and Klebsiella pneumoniae, were each streaked on a Trypticase™ Soy Agar with 5% Sheep Blood agar plate (BD, USA) and the plates were incubated at 35° C. for 18 hours. Afterwards, colonies from pure culture on each plate were inoculated into BD Phoenix ID broth and adjusted to a desired turbidity of approximately 0.5 MacFarland. The bacterial cell suspension was then poured into the ID side of the Phoenix panels that were specifically made for cell lysis testing. Once inoculated, the panel was loaded into Phoenix instrument, where nitrocefin hydrolysis rate was monitored by colorimetric signals changes every 20 minutes for 16 hours.
# (§3) Microorganism. The presence of beta-lactamase in the strains tested herein was previously characterized by isoelectric focusing (IEF) gel electrophoresis, PCR testing, or MIC assays, which were performed by microbroth dilution method according to the CLSI (Clinical and Laboratory Standards Institute) standard.
# [2] = test system: intracellular beta-lactamase; assay: as above; assay type: cell-based, Klebsiella pneumoniae; set-up: unit not given here; conditions: maximum hydrolysis rate within 10 hrs; for NCF activity: no lysis reagent
# Description: as §1, §2, §3
# [3] = Sample 1, E. coli, beta-lactamase +
# [4] = Sample 2, E. coli, beta-lactamase +
# [5] = Sample 3, E. coli, beta-lactamase +
# [6] = Sample 4, E. coli, beta-lactamase +
# [7] = Sample 5, E. coli, beta-lactamase +
# [8] = Sample 6, E. coli, beta-lactamase +
# [9] = Sample 7, E. coli, beta-lactamase +
# [10] = Sample 8, E. coli, beta-lactamase −
# [11] = Sample 9, Klebsiella pneumoniae, beta-lactamase +
# [12] = Sample 10, Klebsiella pneumoniae, beta-lactamase +
# [13] = Sample 11, Klebsiella pneumoniae, beta-lactamase +
# [14] = Sample 12, Klebsiella pneumoniae, beta-lactamase +
# [15] = Sample 13, Klebsiella pneumoniae, beta-lactamase +
# [16] = Sample 14, Klebsiella pneumoniae, beta-lactamase +
# [17] = Sample 15, Klebsiella pneumoniae, beta-lactamase +
# [18] = Sample 16, Klebsiella pneumoniae, beta-lactamase −
smiles,measurement,setting,value
"O=C(Cc1cccs1)N[C@@H]1C(=O)N2C(C(=O)O)=C(/C=C/c3ccc([N+](=O)[O-])cc3[N+](=O)[O-])CS[C@H]12 [NCF, 3-[2,4-dinitrostyryl]-7-(2-thienylacetamido]3-cephem-4-carboxylic acid]",NCF activity,[1]; [3],1.9
same,NCF activity with lysis reagent,[1]; [3],7.2
same,NCF activity,[1]; [4],2.1
same,NCF activity with lysis reagent,[1]; [4],7.7
same,NCF activity,[1]; [5],2.3
same,NCF activity with lysis reagent,[1]; [5],8.1
same,NCF activity,[1]; [6],1.9
same,NCF activity with lysis reagent,[1]; [6],6.8
same,NCF activity,[1]; [7],8.2
same,NCF activity with lysis reagent,[1]; [7],9.1
same,NCF activity,[1]; [8],7.2
same,NCF activity with lysis reagent,[1]; [8],8.1
same,NCF activity,[1]; [9],6.8
same,NCF activity with lysis reagent,[1]; [9],8.4
same,NCF activity,[1]; [10],1.7
same,NCF activity with lysis reagent,[1]; [10],1.8
same,NCF activity,[2]; [11],1.3
same,NCF activity with lysis reagent,[2]; [11],4.6
same,NCF activity,[2]; [12],3.3
same,NCF activity with lysis reagent,[2]; [12],6.3
same,NCF activity,[2]; [13],3.9
same,NCF activity with lysis reagent,[2]; [13],6.1
same,NCF activity,[2]; [14],2.6
same,NCF activity with lysis reagent,[2]; [14],5.6
same,NCF activity,[2]; [15],6.7
same,NCF activity with lysis reagent,[2]; [15],6.8
same,NCF activity,[2]; [16],7.5
same,NCF activity with lysis reagent,[2]; [16],8.8
same,NCF activity,[2]; [17],9.1
same,NCF activity with lysis reagent,[2]; [17],9.5
same,NCF activity,[2]; [18],1.2
same,NCF activity with lysis reagent,[2]; [18],1.8

# Reference: patent US9834807B2, “Compositions for the detection of intracellular bacterial targets and other intracellular micororganism targets” (Becton, Dickinson and Company, priority 2008, dated 2017)
